This note sets out measurements from article PMC7594851, “Enhanced oral bioavailability of an etoposide multiple nanoemulsion incorporating a deoxycholic acid derivative–lipid complex” (Drug Delivery, 2020).

Each structure is given as a SMILES string. Converted amounts (≈) assume the structure as drawn. “And” between values parts separate entries of the source, which are not always exact repeats. Identical values can stand only once. Counter-ions that a name gives are not always drawn.

Data set [1] can be described thus: Droplet size, polydispersity index and zeta potential by dynamic laser light scattering. In kind it is physicochemical. Particulars: mean ± SD, n=6. How it is done: The average droplet size, polydispersity index (PDI), and zeta potential of ELNE were determined using a dynamic laser light scattering analyzer (Malvern Zetasizer Nano ZS90; Malvern Instruments, Malvern, UK). Morphological evaluation of the selected ELNE was performed by transmission electron microscopy (JEM-200; JEOL, Tokyo, Japan).

The nature of data set [2]: Parallel artificial membrane permeability assay (effective permeability, Pe). Particulars: PAMPA; Table S3: after dissolution of ETP or ETP/LMCs in water, or incorporation into the nanoemulsion; mean ± SD, n=6. In kind it is in vitro ADME. Here is the method: A parallel artificial membrane permeability assay was performed using pre-coated 96-well plates designed for this assay (Corning, Corning, NY) according to the manufacturer’s instructions. Briefly, 300 µL PBS (pH 6.8) was added to the receiver plate, and 200 µL of each formulation diluted in PBS (pH 6.8) containing 100 µg/mL ETP was added to each well of the filter plate. The plates were then assembled, and the system was incubated at room temperature for five hours without shaking. After five hours, the plates were disassembled, and samples were withdrawn from both the donor and acceptor plates. The concentration of ETP that permeated through the artificial membrane was measured by HPLC at 254 nm. […] The effective permeability (Pe) of each sample was calculated according to the formula: (1) Pe=−ln[1−CA(t)/Cequilibrium]/[A ×(1/VD+1/VA)×t] where Pe is the permeability (cm/s), A is the effective permeation area (0.288 cm^2), VD is the volume of the donor well (0.2 mL), VA is the volume of the acceptor well (0.3 mL), t is the total incubation time in s, CA(t) is the concentration of the drug in the acceptor well at time t, and Cequilibrium represents [CD(t) × VD + CA(t) × VA]/(VD + VA), where CD(t) denotes the concentration of the drug in the donor well at time t.

Data set [3] is described as follows: Aqueous solubility of ETP and ETP/LMC complexes. In kind it is physicochemical. Particulars: water; mean ± SD, n=6. An excerpt:
Supplement IDRD_A_1837293_SM2931.docx, table 3: Table S3. Aqueous solubilities of a physical complex of ETP and LMC and effective permeabilities of ETP and ETP/LMC or ETP and ETP/LMC-loaded nanoemulsion. | column: Aqueous solubility (μg/mL)

For the compound `COC(=O)C(CCCCN)NC(=O)CCC(C)C1CCC2C3CCC4CC(O)CCC4(C)C3CC(O)C12C` (stereo not drawn) [DCK, N^α-deoxycholyl-l-lysyl-methylester], in data set [1], the Particle size came out at 263 ± 42.4 nm; the Polydispersity index stood at 0.717 ± 0.107; the Zeta potential is 29.4 ± 0.57 mV and 29.4 ± 0.576 mV.
`COc1cc([C@@H]2c3cc4c(cc3[C@@H](O[C@@H]3O[C@@H]5CO[C@@H](C)O[C@H]5[C@H](O)[C@H]3O)[C@H]3COC(=O)[C@H]23)OCO4)cc(OC)c1O` [ETP, etoposide] returned a Papp at 5 h, 100 µg/mL in data set [2] of 0.251 ± 0.063 ×10⁻⁶ cm/s. This compound gave a solubility in data set [3] of 230 ± 29.4 µg/mL (≈ 391 µM).
As for `CCCCCCCCCC(=O)OC[C@H](COP(=O)(O)O)OC(=O)CCCCCCCCC` [PA, 1,2-didecanoyl-sn-glycero-3-phosphate (sodium salt)], in data set [1], the Particle size was found to be 276 ± 3.67 nm and the Polydispersity index is 0.330 ± 0.008.
